# Data reported in patent US12503448B2, “Antibacterial and antiparasitic quinoxaline-2,3-diamine derivatives” (University College Cardiff Consultants Limited, priority 2019, dated 2025).
# Where two headings read alike, the source gives them in different places.
# Tests used:
# MRSA ATCC 33591 = assay: In vitro antibacterial activity; assay type: cell-based; settings: Staphylococcus aureus
# S. mansoni schistosomula = assay: 72 hours schistosomula drug screen; assay type: cell-based, Schistosoma mansoni; settings: for Selectivity Index Schistosomula: HepG2 CC50 over schistosomula EC50; for EC50: Schistosoma mansoni
# Method: Biological Screening 72 Hours Schistosomula Drug Screen […] G. Colley, […], Schistosoma mansoni: simplified method for the production of schistosomules., Exp. Parasitol. 35 (1974) 44-51. Newly transformed schistosomula were prepared for 72 hour high throughput screening (HTS) in 384-well black-sided microtiter plates (Perkin Elmer, MA, USA) as described in M. Nur-e-alam, M. Yousaf, […]. Bari, H. A. Ghabbour, […]. Ho, A. J. […], Neoclerodane Diterpenoids from […], Teucrium […]. Nat. […] The data obtained in this manner is shown in Table 1 in the columns labelled “Phenotype”, “Motility” and “Schistosomula average”.
# [1] = system: M. smegmatis mc^2 15 ATCC 700084; assay: In vitro antibacterial activity; assay type: cell-based, Mycobacterium smegmatis; settings: Mycolicibacterium smegmatis, ATCC700084
# MRSA USA 300 = assay: In vitro antibacterial activity; assay type: cell-based; settings: Staphylococcus aureus
# S. epidermidis NTCT11077 = assay: In vitro antibacterial activity; assay type: cell-based; settings: Staphylococcus epidermidis, NTCT11077
# E. coli ATCC 25922 = assay: In vitro antibacterial activity; assay type: cell-based; settings: Escherichia coli, ATCC25922
# [2] = system: Haemophilus influenzae 18391; assay: Antibacterial MIC (ISO 20776-1); assay type: cell-based; settings: Haemophilus influenzae 18391, AMP/COA resistance, PBP/β-lactamase
# Description: (§1) In vitro Determination of Antibacterial Activity
# (§2) Scientific Reports 8 (1), 2018. Bacterial strains of Enterococcus faecalis—ATCC 29212, NCTC 12201, ATCC 51299; Streptococcus pneumoniae—ATCC 49619, 18778, 21394, 21395; Haemophilus influenza—ATCC 49766, 18391, 17428; Staphylococcus aureus—NCTC 12493, ATCC BAA-077, ATCC 700698, 11051; used for testing the compounds, as previously described in “Clinical laboratory testing and in vitro diagnostics test systems—Susceptibility testing of infectious agents and evaluation of performance of antimicrobial susceptibility devices—Part 1: Reference methods for testing the in vitro activity of antimicrobial agentes against bacteria involved in infectious diseases, ISO/FDIS 20776-1:2006(E). All the procedures were carried out in a biosafety containment level 2.
# [3] = system: Haemophilus influenzae ATCC 49766; assay: Antibacterial MIC (ISO 20776-1); assay type: cell-based; settings: ATCC49766
# Description: as §1, §2
# [4] = system: Streptococcus pneumoniae 21394; assay: Antibacterial MIC (ISO 20776-1); assay type: cell-based; settings: Streptococcus pneumoniae, 21394
# Description: as §1, §2
# [5] = system: Staphylococcus aureus NCTC 12493; assay: Antibacterial MIC (ISO 20776-1); assay type: cell-based; settings: Staphylococcus aureus, NCTC12493
# Description: as §1, §2
# [6] = system: Enterococcus faecalis ATCC 29212; assay: Antibacterial MIC (ISO 20776-1); assay type: cell-based; settings: Enterococcus faecalis, ATCC29212
# Description: as §1, §2
# [7] = system: Enterococcus faecalis ATCC 51299; assay: Antibacterial MIC (ISO 20776-1); assay type: cell-based; settings: ATCC51299; Enterococcus faecalis ATCC 51299, Vancomycin resistance, vanB
# Description: as §1, §2
# [8] = system: Staphylococcus aureus 11051; assay: Antibacterial MIC (ISO 20776-1); assay type: cell-based; settings: Staphylococcus aureus, 11051
# Description: as §1, §2
# [9] = system: Streptococcus pneumoniae 21395; assay: Antibacterial MIC (ISO 20776-1); assay type: cell-based; settings: Streptococcus pneumoniae, 21395
# Description: as §1, §2
# [10] = system: Streptococcus pneumoniae ATCC 49619; assay: Antibacterial MIC (ISO 20776-1); assay type: cell-based; settings: Streptococcus pneumoniae, ATCC49619
# Description: as §1, §2
# [11] = system: Streptococcus pneumoniae 18778; assay: Antibacterial MIC (ISO 20776-1); assay type: cell-based; settings: Streptococcus pneumoniae, 18778
# Description: as §1, §2
# [12] = system: Enterococcus faecalis NCTC 12201; assay: Antibacterial MIC (ISO 20776-1); assay type: cell-based; settings: NCTC12201; Enterococcus faecalis NCTC 12201, Vancomycin resistance, vanA
# Description: as §1, §2
# [13] = system: Haemophilus influenzae 17428; assay: Antibacterial MIC (ISO 20776-1); assay type: cell-based; settings: Haemophilus influenzae 17428, Ampicillin resistance, PBP
# Description: as §1, §2
# [14] = system: Staphylococcus aureus ATCC 700698; assay: Antibacterial MIC (ISO 20776-1); assay type: cell-based; settings: ATCC700698; Staphylococcus aureus ATCC 700698, Vancomycin resistance, hVISA; read-out: MIC
# Description: as §1, §2
# [15] = system: Staphylococcus aureus ATCC BAA-977; assay: Antibacterial MIC (ISO 20776-1); assay type: cell-based; settings: Staphylococcus aureus, ATCCBAA977
# Description: as §1, §2
# MRSA EM RSA = assay: In vitro antibacterial activity; assay type: cell-based; settings: Staphylococcus aureus
# Description: as §1, §2
# [16] = system: F. hepatica newly excysted juveniles (NEJs); assay: Newly excysted juveniles (NEJs) drug screen; assay type: cell-based, Fasciola hepatica; design: scale not given here; settings: 10 μM, 72 h; higher score indicates lower worm activity
# Method: Newly Excysted Juveniles (NEJs) Drug Screen
# F. hepatica (Italian strain) metacercariae were obtained from Ridgeway Research, Gloucestershire, UK and stored at 4° C. Newly excysted juveniles (NEJs) from metacercariae were produced based on an optimisation introduced to the excystment method published by Dixon et al. and Wilson et al (Dixon, K. E., The physiology of excystment of the metacercaria of Fasciola hepática L. Parasitology, 1966, 56, 431-456.; Wilson, L. R., Good, R. T., Panaccio, M., Wijffels, G. L., Sandeman, R. M., Spithill, T. W, Fasciola hepatica: Characterization and Cloning of the Major Cathepsin B Protease Secreted by Newly Excysted Juvenile Liver Fluke. Experimental Parasitology 1998, 88, 85-94).
# After excystment, NEJs were distributed into a 24 well tissue culture plate at a density of 25 parasites per well containing 1 mL of pre-warmed NEJs culture media. Compounds were added to respective wells and NEJ/compound co-cultures were incubated at 37° C. in an atmosphere containing 5% CO2 for 72 hours at a final concentration of 10 μM.
# F. hepatica NEJs (25 per well) were incubated with the three compounds at a concentration of 10 μM (in 0.1% DMSO) and cultured for 72 hrs at 37° C. in an atmosphere containing 5% CO2. Control wells (25 NEJs per well) included those containing 0.1% DMSO (solvent) and RMPI (media) as negative controls or 10 μM Triclabendazole (0.1% DMSO, as positive control, labelled “Tbz” (Comp. 3). After 72 hrs, all NEJs were scored for phenotype and motility metrics. For each treatment, an average of both phenotype and motility score was calculated based on the individual parasite scores (across two independent replicates), wherein a higher score indicates lower worm activity. SD is reported on the bar chart.
# S. aureus ATCC 29213 = assay: In vitro antibacterial activity; assay type: cell-based; settings: Staphylococcus aureus, ATCC29213
# B. cereus = assay: In vitro antibacterial activity; assay type: cell-based; settings: Bacillus cereus; B. cereus; read-out: MIC90
# [17] = system: Pseudomonas aeruginosa ATCC 27853; assay: In vitro antibacterial activity; assay type: cell-based; settings: Pseudomonas aeruginosa, ATCC27853
# S. mansoni adult worms = assay: Adult worm drug screen (WHO scoring, WormassayGP2); assay type: cell-based, Schistosoma mansoni
# Description: Mice (MF-1 mice, Harlan, UK), infected 7 weeks previously with 180 cercaria, were euthanised with an intraperitoneal injection of phenobarbital/heparin solution. Adult worms were recovered by perfusion of the portal system and subjected to drug screening as previously described in Padalino G, Ferla S, Brancale A, Chalmers I W, Hoffmann K F. Int J Parasitol Drugs Drug Resist. 2018 December; 8(3):559-570; in Whiteland H L, Chakroborty A, Forde-Thomas J E, Crusco A, Cookson A, Hollinshead J, Fenn C A, Bartholomew B, Holdsworth P A, Fisher M, Nash R J, Hoffmann K F. Int J Parasitol Drugs Drug Resist. 2018 December; 8(3):465-474; and in Crusco A, Bordoni C, Chakroborty A, Whatley K C L, Whiteland H, Westwell A D, Hoffmann K F. Eur J Med Chem. 2018 May 25; 152:87-100. The data obtained in this manner is shown in Table 1 in the columns labelled “Adult worm”.
# Regarding the quantification of drug treatment on adult worms (e.g. decreased activity, paralysis or sluggishness), two different approaches were used, as described below. Where egg deposition was noticed, eggs were removed and counted using a Sedgewick rafter slide.
# Adult worms were scored using the standardized microscopic WHO-TDR scoring system previously described by Ramirez, B., Bickle, Q., Yousif, F., Fakorede, F., Mouries, M.-A., Nwaka, S. in Schistosomes: Challenges in compound screening, Expert Opin Drug Discov. 2007 October; 2(s1): S53-61. This scoring system (0-4) identifies changes in worm movement and is defined according to the following scoring matrix: 0=no movement, 1=no movement with visible gut peristalsis, 2=minimal movement (occasional movement from anterior or posterior end of the worm), 3=slow continuous movement and 4=normal movement.
# A digital image processing-based system was also used to assess parasite motility after drug treatment and is a modification of methods previously described by Marcellino C., Gut, J., Lim, K., Singh R., McKerrow, L. and Sakanari, J. WormAssay: a novel computer application for whole-plate motion-based screening of macroscopic parasites. PLoS Negl Trop Dis. 2012 January:6(1):e1494. This allowed for objective verification of the WHO method described above. The data obtained with this quantification method is shown in Table 1 in the columns labelled “Adult worm”.
# H3K4 methylation = assay: Histone extraction and detection of global H3K4 methylation in treated adult worms; assay type: cell-based, Schistosoma mansoni; settings: sub-lethal concentration 0.0024 μM, male and female adult worms
# [18] = schistosomula, 72 hour culture, read-out: EC50 Motility
# [19] = schistosomula, 72 hour culture, read-out: EC50 Phenotype
compound,measurement,setting,value
"O=C(Nc1ccc2nc(Nc3ccc(Cl)c(Cl)c3)c(Nc3ccc(Cl)c(Cl)c3)nc2c1)c1ccco1 [Compound 19, N-(2,3-bis((3,4-dichlorophenyl)amino)quinoxalin-6-yl)furan-2-carboxamide]",MIC90,MRSA ATCC 33591,15.6 µg/mL
same,Selectivity Index Schistosomula,S. mansoni schistosomula,8
same,EC50,"S. mansoni schistosomula; average of phenotype and motility, read-out: EC50 Schistosomula average",1940 nM
same,EC50,S. mansoni schistosomula; [18],1330 nM
same,EC50,S. mansoni schistosomula; [19],2540 nM
same,MIC90,[1],> 125 µg/mL
same,MIC90,MRSA USA 300,62.5 µg/mL
same,MIC90,S. epidermidis NTCT11077,125 µg/mL
same,MIC90,E. coli ATCC 25922,> 125 µg/mL
same,MIC,[2],64 µg/mL
same,MIC,[3],64 µg/mL
same,MIC,[4],8 µg/mL
same,MIC,[5],1 µg/mL
same,MIC,[6],4 µg/mL
same,MIC,[7],2 µg/mL
same,MIC,[8],8 µg/mL
same,MIC,[9],8 µg/mL
same,MIC,[10],8 µg/mL
same,MIC,[11],8 µg/mL
same,MIC,[12],0.25 µg/mL
same,MIC,[13],64 µg/mL
same,MIC,[14],8 µg/mL
same,MIC,[15],8 µg/mL
same,MIC90,MRSA EM RSA,62.5 µg/mL
same,Motility (M) Mean score,[16],3.36
same,Phenotype (P) Mean score,[16],3.40
same,MIC90,S. aureus ATCC 29213,31.2 µg/mL
same,MIC90,B. cereus,< 62.5 µg/mL
same,MIC90,[17],> 125 µg/mL
"O=[N+]([O-])c1ccc2nc(Nc3cc(F)cc(C(F)(F)F)c3)c(Nc3cc(F)cc(C(F)(F)F)c3)nc2c1 [Compound 8, N^2, N^3-bis(3-fluoro-5-(trifluoromethyl)phenyl)-6-nitroquinoxaline-2,3-diamine]",Selectivity Index Adult,S. mansoni adult worms; HepG2 CC50 over adult worm EC50,1549
same,EC50,"S. mansoni adult worms; Schistosoma mansoni, adult worms",6.5 nM
same,Selectivity Index Schistosomula,S. mansoni schistosomula,25
same,EC50,S. mansoni schistosomula; [18],430 nM
same,EC50,S. mansoni schistosomula; [19],370 nM
same,global H3K4 methylation compared to the negative control (DMSO),H3K4 methylation,significant % decrease
